# Experiments:
# [1] = Rat behavior observations for signs of motor impairment by trained observer; assay type: in vivo; details: 6 mg/kg subcutaneous, rats, 30 minute observation period
# Method: Rat behavior pharmacology observations for signs of motor impairment by trained observer. Rats were monitored after dosing for any signs of impairment by Compound 1 administered as 6 mg/kg dose by subcutaneous route.
# [2] = system: Maximal Electroshock Seizure (MES) model in rats; assay: Maximal Electroshock Seizure (MES) model in rats; assay type: in vivo
# Excerpt: Adult male Carworth Farms (CF-1) mice (25-35 g) or young male Sprague-Dawley (SD) rats (100-150 g) were obtained from Charles River Laboratories Inc (Wilmington Mass. USA). CF1 mice were typically used for the 6 Hz psychomotor seizure model (6 Hz model described in the section below) but could also be used for the Maximal electroshock seizure (MES) model if performed in mice (Maximal electroshock seizure model described in the section below). SD rats were typically used for MES model but could also be used for 6 Hz psychomotor model if performed in rats. Animals were allowed free access to food and water, except during testing periods. After delivery from supplier lab to the in vivo pharmacology testing lab, animals were allowed sufficient time to acclimate to housing conditions prior to testing. Animals were housed in plastic cages in rooms with controlled humidity, ventilation, and lighting (12 hours lights on and 12 hours darkness). The animals were housed and fed in a manner consistent with the recommendations in the “Guide for Care and Use of Laboratory Animals” (National Research Council), and in accordance with guidelines set by an Institutional Animal Care and Use Committee (IACUC). Animal experiments were conducted in a manner consistent with Animal Research: Reporting of In Vivo Experiments (ARRIVE) guidelines (UK) and were approved by an IACUC. […]
# [3] = Hydrolysis by rat plasma in vitro at 37 degrees C; assay type: in vitro ADME
hydrolysis to Compound 1 by rat plasma in vitro ([3]; incubated at 37 degrees C),hydrolysis by rat plasma after esterase inhibitor pretreatment ([3]; plasma pretreated 37 degrees C 5 min with 10 micromolar methyl arachidonoyl fluoro phosphonate),Structure (SMILES),signs of motor impairment / tolerability or neurological changes [1],"MES Test Results (# rats protected from seizure/# rats tested) ([2]; 6 mg/kg S.C., 0.5 hours before corneal stimulus, SPHA formulation)","tolerability of treatment in MES study ([2]; rats, single acute systemic administration)"
–,–,"O=C(O)[C@@H]1C[C@H]2C[C@@](F)(CCc3nnn[nH]3)CC[C@H]2CN1 [Compound 1, (3S,4aS,6S,8aR)-6-fluoro-6-[2-(1H-1,2,3,4-tetrazol-5-yl)ethyl]-decahydroisoquinoline-3-carboxylic acid]",No tolerability or neurological changes were observed,6/6,well tolerated
within minutes,blocked,"O=C(O)[C@@H]1C[C@H]2CC(F)(CCc3nnn[nH]3)CC[C@H]2CN1 (stereo in doubt) [Compound 2, (3S,4aS,6R,8aR)-6-fluoro-6-[2-(1H-1,2,3,4-tetrazol-5-yl)ethyl]-decahydroisoquinoline-3-carboxylic acid]",–,–,–

# Source: patent publication US11685726B2, “Pharmaceutical compositions of 6-(2-(2H-tetrazol-5-yl)ethyl)-6-fluorodecahydroisoquinoline-3-carboxylic acid and ester derivatives thereof” (Sea Pharmaceuticals LLC, priority 2020, dated 2023)
